The source made the active and inactive calls.
What was measured:
Cytochrome P450 2C19 = Cytochrome P450 2C19 (Homo sapiens, UniProt P33261); assay: Cytochrome panel assay with activity outcomes. Panel member name: p450-cyp2c19 Compounds with AC50 equal or less than 10 uM are considered active; assay type: functional; conditions: read-out: AC50
Cytochrome P450 2D6 = Cytochrome P450 2D6 (Homo sapiens, UniProt P10635);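 also: CYP2D6 member of a cytochrome P450 panel assay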
Cytochrome P450 2C9 = Cytochrome P450 2C9 (Homo sapiens, UniProt P11712)
[1] = target: T1, Heat shock factor protein 1 (Mus musculus, UniProt P38532); assay: HSF1 potentiators in luciferase reporter cells, confirmation, cell-based, NIH3T3, luminescence, dose retest (AID 435004); assay type: functional;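 also: stress induced by proteasome inhibitor MG132 added 30 min after compound; luciferase reporter driven by HSF1 response element in NIH3T3 cells; actives raise luminescence as potentiators of the MG132 stress response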
T1 sequence (P38532 whole entry): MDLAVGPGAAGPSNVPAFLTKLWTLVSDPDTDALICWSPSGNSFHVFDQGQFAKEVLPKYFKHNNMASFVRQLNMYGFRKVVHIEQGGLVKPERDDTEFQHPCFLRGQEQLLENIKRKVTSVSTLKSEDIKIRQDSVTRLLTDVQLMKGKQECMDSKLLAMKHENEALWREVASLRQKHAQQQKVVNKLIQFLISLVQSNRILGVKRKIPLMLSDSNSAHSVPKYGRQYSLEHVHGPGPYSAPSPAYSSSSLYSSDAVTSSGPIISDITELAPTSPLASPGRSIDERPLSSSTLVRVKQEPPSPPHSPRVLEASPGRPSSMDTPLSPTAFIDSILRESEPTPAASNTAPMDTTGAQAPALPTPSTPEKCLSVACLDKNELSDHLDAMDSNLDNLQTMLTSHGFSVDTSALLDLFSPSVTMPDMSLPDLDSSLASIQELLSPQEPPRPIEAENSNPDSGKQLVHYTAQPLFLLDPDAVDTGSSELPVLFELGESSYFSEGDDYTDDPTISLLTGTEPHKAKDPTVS

[2] = target: T2, Rac GTPase-activating protein 1 (Homo sapiens, UniProt Q9H0H5); assay: MgcRacGAP GTPase-activating activity inhibitors, confirmation, biochemical, ADP Hunter fluorescence, primary and confirmatory (AID 624330); assay type: functional
T2 sequence (Q9H0H5 whole entry): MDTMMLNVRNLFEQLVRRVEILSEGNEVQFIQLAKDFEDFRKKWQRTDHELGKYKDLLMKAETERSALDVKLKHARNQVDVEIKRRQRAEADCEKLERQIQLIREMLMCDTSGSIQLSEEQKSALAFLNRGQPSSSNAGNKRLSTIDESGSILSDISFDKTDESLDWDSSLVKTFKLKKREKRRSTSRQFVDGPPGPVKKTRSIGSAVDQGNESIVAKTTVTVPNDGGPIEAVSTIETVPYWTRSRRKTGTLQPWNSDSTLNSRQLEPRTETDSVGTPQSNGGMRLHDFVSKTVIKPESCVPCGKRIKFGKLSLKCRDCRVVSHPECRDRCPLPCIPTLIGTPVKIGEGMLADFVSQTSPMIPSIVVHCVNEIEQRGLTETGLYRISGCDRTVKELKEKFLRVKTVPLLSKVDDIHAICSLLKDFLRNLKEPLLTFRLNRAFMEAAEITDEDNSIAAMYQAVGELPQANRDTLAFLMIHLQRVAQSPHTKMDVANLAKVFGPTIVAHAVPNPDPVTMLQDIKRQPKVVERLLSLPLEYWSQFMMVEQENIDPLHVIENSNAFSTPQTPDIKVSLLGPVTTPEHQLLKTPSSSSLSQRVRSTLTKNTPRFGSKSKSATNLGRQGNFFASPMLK

Cytochrome P450 1A2 = target: T3, Cytochrome P450 1A2 (Homo sapiens, UniProt P05177);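 also: PubChem cytochrome P450 panel assay, CYP1A2 panel member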
T3 sequence (P05177 whole entry): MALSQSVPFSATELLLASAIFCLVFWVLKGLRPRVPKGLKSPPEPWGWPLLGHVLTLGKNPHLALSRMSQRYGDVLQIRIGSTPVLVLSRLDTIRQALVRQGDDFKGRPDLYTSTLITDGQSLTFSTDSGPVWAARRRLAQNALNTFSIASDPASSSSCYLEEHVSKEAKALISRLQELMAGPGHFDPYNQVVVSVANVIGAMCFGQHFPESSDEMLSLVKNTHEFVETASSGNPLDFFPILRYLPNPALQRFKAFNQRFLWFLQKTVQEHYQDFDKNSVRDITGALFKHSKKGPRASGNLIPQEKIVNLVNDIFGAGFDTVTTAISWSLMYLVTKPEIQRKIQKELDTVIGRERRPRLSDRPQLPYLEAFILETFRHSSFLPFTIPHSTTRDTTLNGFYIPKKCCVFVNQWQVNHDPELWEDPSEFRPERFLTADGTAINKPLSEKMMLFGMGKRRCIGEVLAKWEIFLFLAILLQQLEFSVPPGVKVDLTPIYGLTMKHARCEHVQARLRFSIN

H4 = assay: Luminescence Cell-Based Dose Response HTS to Identify Activators of 5'UTR Stem-Loop Driven Prion Protein mRNA Translation in H4 Neuroglioblastoma Cells. [Related pubchem assays: 1829 (Project Summary), 1814 (Primary HTS)]; assay type: functional; conditions: Homo sapiens
[3] = Luminescence Cell-Based Dose Confirmation HTS to Identify Activators of 5'UTR Stem-Loop Driven Alpha-Synuclein mRNA Translation in H4 Neuroglioblastoma Cells. [Related pubchem assays: 1829 (Project Summary), 1814 (Primary HTS)]; assay type: functional
[4] = Luminescence Cell-Based Dose Response HTS to Identify Activators of Luciferase Translation or Activity in H4 […] Cells. [Related pubchem assays: 1829 (Project Summary), 1814 (Primary HTS)]; assay type: functional
[5] = HEp-2 cell cytotoxicity, dose response, cytotoxicity control for RSV inhibitor project, HTS (AID 2410); assay type: functional; conditions: human respiratory syncytial virus
Cytochrome P450 3A4 = Cytochrome P450 3A4 (Homo sapiens, UniProt P08684);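 also: CYP3A4 tested as one member of a cytochrome P450 panel screen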
Cytochrome P450 3A4, sequence (P08684 whole entry): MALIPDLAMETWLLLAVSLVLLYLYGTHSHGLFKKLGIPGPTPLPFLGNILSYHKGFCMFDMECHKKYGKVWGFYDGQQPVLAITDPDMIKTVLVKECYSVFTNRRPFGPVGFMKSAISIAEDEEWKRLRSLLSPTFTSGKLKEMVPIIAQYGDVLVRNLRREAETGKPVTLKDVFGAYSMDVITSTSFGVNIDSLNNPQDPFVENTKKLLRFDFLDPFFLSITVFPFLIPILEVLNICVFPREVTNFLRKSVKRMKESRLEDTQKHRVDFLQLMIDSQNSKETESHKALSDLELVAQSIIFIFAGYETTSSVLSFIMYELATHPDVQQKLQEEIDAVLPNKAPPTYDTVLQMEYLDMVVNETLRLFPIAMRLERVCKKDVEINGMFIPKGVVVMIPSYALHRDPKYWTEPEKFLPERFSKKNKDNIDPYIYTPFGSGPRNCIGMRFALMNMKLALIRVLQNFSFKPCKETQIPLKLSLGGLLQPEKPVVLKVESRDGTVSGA

Cytochrome P450 2D6, sequence (P10635 whole entry): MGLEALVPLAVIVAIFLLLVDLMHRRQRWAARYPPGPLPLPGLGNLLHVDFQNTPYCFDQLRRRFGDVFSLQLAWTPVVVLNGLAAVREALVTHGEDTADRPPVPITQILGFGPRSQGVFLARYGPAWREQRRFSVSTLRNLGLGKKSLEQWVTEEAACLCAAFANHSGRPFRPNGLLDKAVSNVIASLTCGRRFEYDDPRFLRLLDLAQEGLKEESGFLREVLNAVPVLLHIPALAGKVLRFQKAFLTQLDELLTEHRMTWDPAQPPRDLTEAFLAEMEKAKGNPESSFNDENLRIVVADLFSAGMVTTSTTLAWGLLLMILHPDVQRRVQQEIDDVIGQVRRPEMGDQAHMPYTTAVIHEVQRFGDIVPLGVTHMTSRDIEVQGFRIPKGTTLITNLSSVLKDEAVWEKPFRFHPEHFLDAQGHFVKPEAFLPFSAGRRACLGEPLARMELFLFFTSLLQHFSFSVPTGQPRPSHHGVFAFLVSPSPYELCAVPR
Cytochrome P450 2C19, sequence (P33261 whole entry): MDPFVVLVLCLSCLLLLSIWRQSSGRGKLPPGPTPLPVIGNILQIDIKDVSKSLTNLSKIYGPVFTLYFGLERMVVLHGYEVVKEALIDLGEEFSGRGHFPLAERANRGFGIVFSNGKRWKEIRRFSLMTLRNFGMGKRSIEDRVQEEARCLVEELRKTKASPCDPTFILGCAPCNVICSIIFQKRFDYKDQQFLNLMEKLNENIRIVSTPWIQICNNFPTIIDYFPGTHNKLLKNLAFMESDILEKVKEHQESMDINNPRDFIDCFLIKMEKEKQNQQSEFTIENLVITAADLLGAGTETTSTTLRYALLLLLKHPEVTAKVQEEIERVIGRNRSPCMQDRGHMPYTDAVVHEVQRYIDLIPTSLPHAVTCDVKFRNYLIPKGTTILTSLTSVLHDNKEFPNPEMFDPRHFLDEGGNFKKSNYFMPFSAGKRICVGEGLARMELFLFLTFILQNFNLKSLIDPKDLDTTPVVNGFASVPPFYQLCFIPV
Cytochrome P450 2C9, sequence (P11712 whole entry): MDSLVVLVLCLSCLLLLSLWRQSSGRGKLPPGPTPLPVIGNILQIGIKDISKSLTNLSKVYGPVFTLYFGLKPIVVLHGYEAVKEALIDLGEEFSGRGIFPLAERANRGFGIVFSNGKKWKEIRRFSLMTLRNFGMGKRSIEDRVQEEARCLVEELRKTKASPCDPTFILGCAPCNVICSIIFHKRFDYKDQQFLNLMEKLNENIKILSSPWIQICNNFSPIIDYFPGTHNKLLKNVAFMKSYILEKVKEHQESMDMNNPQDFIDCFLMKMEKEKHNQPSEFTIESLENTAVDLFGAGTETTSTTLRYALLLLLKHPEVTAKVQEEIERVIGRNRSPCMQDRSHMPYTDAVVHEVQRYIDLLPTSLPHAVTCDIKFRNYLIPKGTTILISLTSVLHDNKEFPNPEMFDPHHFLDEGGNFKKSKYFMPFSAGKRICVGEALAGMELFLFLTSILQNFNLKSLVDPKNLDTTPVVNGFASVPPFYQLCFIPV

For `CCOC(=O)N/N=C/c1ccccc1F`, the AC50 (Cytochrome P450 2C19) was 35.5 µM (inconclusive).
With `CCOC(=O)Nc1ccc(S(=O)(=O)NCc2ccccc2)cc1` the AC50 (Cytochrome P450 2C19) was 2.24 µM (inconclusive), the AC50 (Cytochrome P450 2D6) was 14.1 µM (inconclusive) and the AC50 (Cytochrome P450 2C9) was 5.62 µM (inconclusive).
For `COc1ccc(-c2cc3ccc(OCC(C)=O)cc3oc2=O)cc1`, the EC50 [1] was > 260 µM (inactive).
With `CS(=O)(=O)Nc1cccc(-c2nccc(-n3ccnc3)n2)c1` the AC50 (Cytochrome P450 2C19) was 39.8 µM (inconclusive).
In the case of `C=C(CC1([C@@H](NP(=O)(c2ccccc2)c2ccccc2)[C@H]2C[C@@H]2CCN(C(=O)OCC)S(=O)(=O)c2ccc(C)cc2)CC1)c1ccccc1`, the AC50 (Cytochrome P450 2C19) is reported as 1.26 µM (inconclusive) and the AC50 (Cytochrome P450 2C9) is reported as 5.01 µM (inconclusive).
With `COc1ccc(C(=O)N/N=C/c2ccc(N3CCOCC3)s2)cc1OC` the IC50 [2] was 110 µM (active).
In the case of `COc1cccc(OC)c1OCCCCN1CCCC1`, the IC50 [2] is reported as 204 µM (active), the AC50 (Cytochrome P450 1A2) is reported as 15.8 µM (inconclusive) and the AC50 (Cytochrome P450 2D6) is reported as 14.1 µM (inconclusive).
For `CN1CCN(c2ccc(NC(=O)COc3ccccc3)cc2Cl)CC1`, the EC50 (H4) was 66.9 µM (active), the EC50 [3] was 0.214 µM (active) and the EC50 [4] was 0.229 µM (active).
For `OCCCN=C(S)Nc1ccc(Nc2ccccc2)cc1`, the IC50 [2] was 88 µM (active).
In the case of `Cc1cccc(-c2cccc(NC(=O)C3CCCN(C(=O)c4cccnc4)C3)c2)c1` (stereo not drawn), the EC50 [1] is reported as > 260 µM (inactive).
For `CCNc1ccc(S(=O)(=O)N(C)C)cc1NCC(=O)Nc1ccccc1Br`, the EC50 [1] was > 260 µM (inactive).
For `C[C@H](NC(=O)c1[nH]cnc1C(=O)N[C@@H](Cc1ccccc1)C(=O)OCc1ccccc1)C(=O)OC(C)(C)C`, the CC50 [5] was 24.8 µM (active).
For `CCc1cccc(NC(=O)c2cnn(-c3ccccc3)c2C)c1`, the CC50 [5] was 29.9 µM (active).
With `N=C(NOC(=O)c1cc(Cl)ccc1Cl)c1ccncc1` the EC50 (H4) was 28.1 µM (active), the EC50 [3] was 9.04 µM (active) and the EC50 [4] was 1.87 µM (active).
With `Cc1cccc(NC(=O)CSc2cc(C)c(C#N)c3nc4ccccc4n23)c1` the EC50 [1] was 6.87 µM (active).
In the case of `CCc1nnc(NC(=O)C2CCN(C(=O)NC3CCCCC3)CC2)s1`, the AC50 (Cytochrome P450 2C19) is reported as 0.158 µM (inconclusive) and the AC50 (Cytochrome P450 2C9) is reported as 20 µM (inconclusive).
In the case of `COc1ccc(CCNC(=O)C2CCCN(Cc3nc(-c4ccccc4C)oc3C)C2)cc1OC` (stereo not drawn), the EC50 [1] is reported as > 260 µM (inactive).
For `O=C(CSc1n[nH]c(-c2ccccc2)n1)c1ccccc1`, the EC50 (H4) was 6.22 µM (active), the EC50 [3] was 15.3 µM (active) and the EC50 [4] was 5.83 µM (active).
For `COc1cc2c(c(OC)c1CC=C(C)C)C[C@H](c1ccc(O)cc1O)CO2` [GLYASPERIN D], the CC50 [5] was 15.3 µM (active).
In the case of `Cc1ccccc1CN1CCN(CC(=O)NCCCN2CCN(c3ccc(F)cc3)CC2)C1=O`, the AC50 (Cytochrome P450 3A4) is reported as 25.1 µM (inconclusive), the AC50 (Cytochrome P450 2C19) is reported as 11.2 µM (inconclusive) and the AC50 (Cytochrome P450 2C9) is reported as 12.6 µM (inconclusive).
For `COc1ccccc1[C@@H]1C(c2cccc(Cl)c2)=NN(c2ccccc2)[C@H]1C(=O)N1CCOC1=O`, the CC50 [5] was 33.2 µM (active).
For `CC(C)(C)n1nc2c(c1NC(=O)c1cc([N+](=O)[O-])ccc1Cl)CS(=O)(=O)C2`, the EC50 (H4) was > 120 µM (not active), the EC50 [3] was 17.8 µM (active) and the EC50 [4] was 18.9 µM (active).
For `Cc1ccc(S(=O)(=O)N2CCC(=O)N(C(COCc3cccc(C)c3)Cc3ccccc3)CC2)cc1` (stereo not drawn), the CC50 [5] was 28.7 µM (active).
In the case of `COc1ccccc1OCC#CCn1ccnc1`, the IC50 [2] is reported as 160 µM (active).
In the case of `COc1ccccc1CNCCc1cccc(Cl)c1`, the IC50 [2] is reported as 135 µM (active).
For `COC(=O)c1sccc1NC(=O)c1cc(-c2ccc(C)cc2)nc2ccccc12`, the AC50 (Cytochrome P450 2C19) was 10 µM (inconclusive) and the AC50 (Cytochrome P450 1A2) was 14.1 µM (inconclusive).
In the case of `N#Cc1cnc2sc3ccccc3n2c1=N`, the EC50 (H4) is reported as 11.7 µM (active), the EC50 [3] is reported as 15.9 µM (active) and the EC50 [4] is reported as 10.6 µM (active).
For `CCOc1ccc(/C=C2\CCC(C3CCCC3)C2=O)cc1` (stereo not drawn), the EC50 (H4) was > 120 µM (not active) and the EC50 [4] was > 120 µM (not active).
With `CN(C(=O)c1ccc(COc2ccccc2Br)o1)c1ccccc1` the CC50 [5] was 22.1 µM (active).
In the case of `O=C1[C@@H]2Cc3c([nH]c4ccccc34)C(c3ccc([N+](=O)[O-])cc3)N2C(=O)CN1C1CC1` (stereo partly drawn), the EC50 [1] is reported as > 260 µM (inactive).
In the case of `O=C1CC(c2ccccc2)CC(O)=C1/C=N/c1ccc(O)cc1` (stereo not drawn), the IC50 [2] is reported as 26 µM (active).
With `O=c1c(Cl)cc(Cl)nn1-c1ccccc1` the EC50 [1] was 24.7 µM (active).
In the case of `COC(=O)CCC(=O)Nc1cccc2ccccc12`, the AC50 (Cytochrome P450 2C19) is reported as 20 µM (inconclusive).
For `CCOc1cc(/C=C2/SC(=S)N(CC3CCCO3)C2=O)ccc1O` (stereo not drawn), the EC50 [1] was > 260 µM (inactive).
With `CCc1nc2c(sc3nc4c(cc32)COC(C)(C)C4)c(=O)n1Cc1ccco1` the EC50 [1] was > 260 µM (inactive).
In the case of `CC(Cc1ccccc1)/[N+]([O-])=C\c1ccc(C(F)(F)F)cc1` (stereo not drawn), the EC50 (H4) is reported as 4.53 µM (active), the EC50 [3] is reported as 1.2 µM (active) and the EC50 [4] is reported as 6.29 µM (active).
With `N#Cc1ccc(S(=O)(=O)N2CCCN(c3nc4ccc(Cl)cc4s3)CC2)cc1` the CC50 [5] was > 50 µM (active).
With `CC(C)(C)c1ccc(C(=O)NCc2ccco2)cc1` the EC50 (H4) was 13.7 µM (active), the EC50 [3] was 20.9 µM (active) and the EC50 [4] was 31 µM (active).
With `COc1cccc(Nc2ncc3ncc(=O)n(Cc4cccs4)c3n2)c1` the AC50 (Cytochrome P450 2C19) was 3.98 µM (inconclusive), the AC50 (Cytochrome P450 2D6) was 3.98 µM (inconclusive) and the AC50 (Cytochrome P450 2C9) was 2.51 µM (inconclusive).
With `CCc1ccc(NC(=O)C2CCN(S(=O)(=O)c3c(C)nc(O)nc3O)CC2)cc1` the AC50 (Cytochrome P450 2C19) was 11.2 µM (inconclusive).
For `O=C1CN(c2ccccc2)C(=S)N1C(=O)c1ccccc1`, the EC50 (H4) was 15.7 µM (inconclusive), the EC50 [3] was 57.7 µM (active) and the EC50 [4] was 106 µM (active).
For `CN1CCN(CCCNC(=O)c2cc3c(=O)n(C)c4ccccc4c3s2)CC1`, the EC50 (H4) was > 120 µM (not active), the EC50 [3] was > 120 µM (not active) and the EC50 [4] was 11.7 µM (active).
For `COc1cc(NC(=O)COC(=O)/C=C/c2ccc(O)c(OC)c2)cc(OC)c1`, the IC50 [2] was 51.7 µM (active).
With `COc1cc(-c2c(-c3ccsc3)sc3ccccc23)cc(OC)c1OC` the CC50 [5] was 33.7 µM (active).
For `Cc1ccc(-n2nc3c(=O)n(CCCC(=O)NCc4ccccc4C)nc(C)c3c2C)cc1`, the CC50 [5] was > 50 µM (active).
In the case of `N#Cc1ccc(Oc2nc(C(N)=O)cc(-c3ccccc3)n2)cc1`, the AC50 (Cytochrome P450 2C19) is reported as 25.1 µM (inconclusive).
In the case of `CC1CCN(C(=S)SCc2nc(N)nc(Nc3ccccc3)n2)CC1`, the CC50 [5] is reported as 13.3 µM (active).
With `CC(C)(C)N(NS(=O)(=O)c1ccc(F)cc1)c1ccccc1` the EC50 [1] was > 260 µM (inactive).
